Assay results published in patent publication US9944647B2 (Incyte Corporation, priority 2015, dated 2018).

These molecules were tested against LSD-1 enzyme (Homo sapiens (Human), UniProt O60341) (assay: LANCE LSD1/KDM1A demethylase assay (LSD1 histone demethylase biochemical assay)). Settings: 1 nM LSD-1 enzyme, 1 hour preincubation at 25° C., Biotin-labeled Histone H3 peptide substrate.
With `CN1CCC[C@@H](COc2nc(-c3ccc(C#N)cc3)c(-c3ccc4c(c3)OC(C(=O)N(C)C)CO4)c3nccn23)C1` (stereo partly drawn) [Example 76, 7-(7-(4-cyanophcnyl)-5-{[(3R)-1-methylpiperidin-3-yl]methoxy}imidazo[1,2-c]pyrimidin-8-yl)-N,N-dimethyl-2,3-dihydro-1,4-benzodioxine-2-carboxamide] the IC50 was at most 50 nM.
In the case of `CN1CCC[C@@H](COc2nc(-c3ccc(C#N)cc3)c(-c3ccc(CCN4CCOCC4)cc3)c3nccn23)C1` [Example 11, 4-{5-{[(3R)-1-methylpiperidin-3-yl]methoxy}-8-[4-(2-morpholin-4-ylethyl)phenyl]imidazo[1,2-c]pyrimidin-7-yl}benzonitrile], the IC50 is reported as 50 to 500 nM.
`CN1CCC[C@@H](COc2nc(-c3ccc(C#N)cc3)c(-c3cc4oc(=O)n(C)c4cc3F)c3nccn23)C1` [Example 45, 4-(8-(5-fluoro-3-methyl-2-oxo-2,3-dihydro-1,3-benzoxazol-6-yl)-5-{[(3R)-1-methylpiperidin-3-yl]methoxy}imidazo[1,2-c]pyrimidin-7-yl)benzonitrile] was tested, and the IC50 was at most 50 nM.
With `Cc1ccc(-c2c(-c3ccc(C#N)cc3)nc(OC[C@@H]3CCCN(C)C3)n3ccnc23)cc1C(C)O` (stereo partly drawn) [Example 93, 4-(8-[3-(1-hydroxyethyl)-4-methylphenyl]-5-{[(3R)-1-methylpiperidin-3-yl]methoxy}imidazo[1,2-c]pyrimidin-7-yl)benzonitrile] the IC50 was at most 50 nM.
`CN(C)C1CCN(c2nc(-c3ccc(C#N)cc3)c(-c3ccc(N(C)S(C)(=O)=O)nc3)c3nccn23)CC1` [Example 115, N-(5-{7-(4-cyanophenyl)-5-[4-(dimethylamino)piperidin-1-yl]imidazo[1,2-c]pyrimidin-8-yl}pyridin-2-yl)-N-methylmethanesulfonamide] gave an IC50 of at most 50 nM.
With `CN1CCC[C@@H](COc2nc(-c3ccc(C#N)cc3)c(-c3cnc4c(ccn4C)c3)c3nccn23)C1` [Example 19, 4-[5-{[(3R)-1-methylpiperidin-3-yl]methoxy}-8-(1-methyl-1H-pyrrolo[2,3-b]pyridin-5-yl)imidazo[1,2-c]pyrimidin-7-yl]benzonitrile] the IC50 was at most 50 nM.
`CN(C)C1CCN(c2nc(-c3ccc(C#N)cc3)c(-c3ccc(CN4CCOCC4)c(F)c3)c3nccn23)CC1` [Example 98, 4-{5-[4-(dimethylamino)piperidin-1-yl]-8-[3-fluoro-4-(morpholin-4-ylmethyl)phenyl]imidazo[1,2-c]pyrimidin-7-yl}benzonitrile] was tested, and the IC50 was at most 50 nM.
In the case of `CN(C)C1CCN(c2nc(-c3ccc(C#N)cc3)c(-c3cc(F)c(CO)c(F)c3)c3nccn23)CC1` [Example 90, 4-{8-[3,5-difluoro-4-(hydroxymethyl)phenyl]-5-[4-(dimethylamino)piperidin-1-yl]imidazo[1,2-c]pyrimidin-7-yl}benzonitrile], the IC50 is reported as at most 50 nM.
`CCOc1ccc(-c2c(-c3ccc(C#N)cc3)nc(N3CCC(N(C)C)CC3)n3ccnc23)cn1` [Example 117, 4-[5-[4-(dimethylamino)piperidin-1-yl]-8-(6-ethoxypyridin-3-yl)imidazo[1,2-c]pyrimidin-7-yl]benzonitrile] was tested, and the IC50 was at most 50 nM.
Work on `CN(C)C1CCN(c2nc(-c3ccc(C#N)cc3)c(-c3cnc4c(c3)oc(=O)n4C)c3nccn23)CC1` [Example 60, 4-[5-[4-(dimethylamino)piperidin-1-yl]-8-(3-methyl-2-oxo-2,3-dihydro[1,3]oxazolo[4,5-b]pyridin-6-yl)imidazo[1,2-c]pyrimidin-7-yl]benzonitrile] yielded an IC50 of at most 50 nM.
`Cc1ncc(-c2c(-c3ccc(C#N)cc3)nc(N3CCC(N(C)C)CC3)n3ccnc23)cc1C(F)F` [Example 132, 4-{8-[5-(difluoromethyl)-6-methylpyridin-3-yl]-5-[4-(dimethylamino)piperidin-1-yl]imidazo[1,2-c]pyrimidin-7-yl}benzonitrile] was tested, and the IC50 was 50 to 500 nM.
`Cn1ncc2cc(-c3c(-c4ccc(C#N)cc4)nc(OC[C@@H]4CCCN(CCO)C4)n4ccnc34)cnc21` [Example 34, 4-[5-{[(3R)-1-(2-hydroxyethyl)piperidin-3-yl]methoxy}-8-(1-methyl-1H-pyrazolo[3,4-b]pyridin-5-yl)imidazo[1,2-c]pyrimidin-7-yl]benzonitrile] gave an IC50 of at most 50 nM.
With `CN1CCC[C@@H](COc2nc(-c3ccc(C#N)cc3)c(-c3ccc4c(c3)ncn4C)c3nccn23)C1` [Example 17, 4-(8-(1-methyl-1H-benzimidazol-5-yl)-5-{[(3R)-1-methylpiperidin-3-yl]methoxy}imidazo[1,2-c]pyrimidin-7-yl)benzonitrile] the IC50 was at most 50 nM.
With `CN(C)C1CCN(c2nc(-c3ccc(C#N)cc3)c(-c3cc(F)c4c(c3)oc(=O)n4C)c3nccn23)CC1` [Example 58, 4-[5-[4-(dimethylamino)piperidin-1-yl]-8-(4-fluoro-3-methyl-2-oxo-2,3-dihydro-1,3-benzoxazol-6-yl)imidazo[1,2-c]pyrimidin-7-yl]benzonitrile] the IC50 was at most 50 nM.
In the case of `Cc1ncc(-c2c(-c3ccc(C#N)cc3)nc(OC[C@@H]3CCCN(C)C3)n3ccnc23)cc1F` [Example 74, 4-(8-(5-fluoro-6-methylpyridin-3-yl)-5-{[(3R)-1-methylpiperidin-3-yl]methoxy}imidazo[1,2-c]pyrimidin-7-yl)benzonitrile], the IC50 is reported as 50 to 500 nM.
Work on `CN1CCC[C@@H](COc2nc(-c3ccc(C#N)cc3)c(-c3ccc(CO)c(F)c3)c3nccn23)C1` [Example 31, 4-(8-[3-fluoro-4-(hydroxymethyl)phenyl]-5-{[(3R)-1-methylpiperidin-3-yl]methoxy}imidazo[1,2-c]pyrimidin-7-yl)benzonitrile] yielded an IC50 of at most 50 nM.
For `CN1CCC[C@@H](COc2nc(-c3ccc(C#N)cc3)c(-c3ccc(CO)c(Cl)c3)c3nccn23)C1` [Example 101, 4-(8-[3-chloro-4-(hydroxymethyl)phenyl]-5-{[(3R)-1-methylpiperidin-3-yl]methoxy}imidazo[1,2-c]pyrimidin-7-yl)benzonitrile], the IC50 was at most 50 nM.
In the case of `CN1CCC[C@@H](COc2nc(-c3ccc(C#N)cc3)c(-c3ccc(CN(C)S(C)(=O)=O)c(F)c3)c3nccn23)C1` [Example 84, N-[4-(7-(4-cyanophenyl)-5-{[(3R)-1-methylpiperidin-3-yl]methoxy}imidazo[1,2-c]pyrimidin-8-yl)-2-fluorobenzyl]-N-methylmethanesulfonamide], the IC50 is reported as 50 to 500 nM.
In the case of `Cc1cc(-c2c(-c3ccc(C#N)cc3)nc(N3CC[C@@H](N(C)C)C3)n3ccnc23)cc(F)c1CO` [Example 110, 4-{5-[(3R)-3-(dimethylamino)pyrrolidin-1-yl]-8-[3-fluoro-4-(hydroxymethyl)-5-methylphenyl]imidazo[1,2-c]pyrimidin-7-yl}benzonitrile], the IC50 is reported as at most 50 nM.
`Cc1ccc(-c2c(-c3ccc(C#N)cc3)nc(OC[C@@H]3CCCN(C)C3)n3ccnc23)cc1CO` [Example 71, 4-(8-[3-(hydroxymethyl)-4-methylphenyl]-5-{[(3R)-1-methylpiperidin-3-yl]methoxy}imidazo[1,2-c]pyrimidin-7-yl)benzonitrile] gave an IC50 of at most 50 nM.
With `CN1CCC[C@@H](COc2nc(-c3ccc(C#N)cc3)c(-c3ccc4c(c3)N(C)C(=O)CC4)c3nccn23)C1` [Example 79, 4-(8-(1-methyl-2-oxo-1,2,3,4-tetrahydroquinolin-7-yl)-5-{[(3R)-1-methylpiperidin-3-yl]methoxy}imidazo[1,2-c]pyrimidin-7-yl)benzonitrile] the IC50 was 50 to 500 nM.
Work on `CN(C)C1CCN(c2nc(-c3ccc(C#N)cc3)c(-c3cc4oc(=O)n(C)c4cc3F)c3nccn23)CC1` [Example 54, 4-[5-[4-(dimethylamino)piperidin-1-yl]-8-(5-fluoro-3-methyl-2-oxo-2,3-dihydro-1,3-benzoxazol-6-yl)imidazo[1,2-c]pyrimidin-7-yl]benzonitrile] yielded an IC50 of at most 50 nM.
Work on `Cc1ccc(-c2c(-c3ccc(C#N)cc3)nc(N3CCC(N(C)C)CC3)n3ccnc23)cc1CO` [Example 102, 4-{5-[4-(dimethylamino)piperidin-1-yl]-8-[3-(hydroxymethyl)-4-methylphenyl]imidazo[1,2-c]pyrimidin-7-yl}benzonitrile] yielded an IC50 of at most 50 nM.
For `Cn1c(=O)oc2cc(-c3c(-c4ccc(C#N)cc4)nc(OC[C@@H]4CCCN(CCC#N)C4)n4ccnc34)ccc21` [Example 83, 4-[5-{[(3R)-1-(2-cyanoethyl)piperidin-3-yl]methoxy}-8-(3-methyl-2-oxo-2,3-dihydro-1,3-benzoxazol-6-yl)imidazo[1,2-c]pyrimidin-7-yl]benzonitrile], the IC50 was at most 50 nM.
For `CN1CCC[C@@H](COc2nc(-c3ccc(C#N)cc3)c(-c3ccc(N4CCCC4)nc3)c3nccn23)C1` [Example 5, 4-[5-{[(3R)-1-methylpiperidin-3-yl]methoxy}-8-(6-pyrrolidin-1-ylpyridin-3-yl)imidazo[1,2-c]pyrimidin-7-yl]benzonitrile], the IC50 was at most 50 nM.
For `CN1CCC2(CCN(c3nc(-c4ccc(C#N)cc4)c(-c4cnc5c(cnn5C)c4)c4nccn34)C2)C1` (centres unmarked) [Example 39, 4-[5-(7-methyl-2,7-diazaspiro[4.4]non-2-yl)-8-(1-methyl-1H-pyrazolo[3,4-b]pyridin-5-yl)imidazo[1,2-c]pyrimidin-7-yl]benzonitrile], the IC50 was at most 50 nM.
In the case of `C[C@@H](O)CN1CCC[C@@H](COc2nc(-c3ccc(C#N)cc3)c(-c3cnc4c(cnn4C)c3)c3nccn23)C1` [Example 136, 4-[5-({(3R)-1-[(2R)-2-hydroxypropyl]piperidin-3-yl}methoxy)-8-(1-methyl-1H-pyrazolo[3,4-b]pyridin-5-yl)imidazo[1,2-c]pyrimidin-7-yl]benzonitrile], the IC50 is reported as 50 to 500 nM.
With `CN1CCC[C@@H](COc2nc(-c3ccc(C#N)cc3)c(-c3ccc(CN(C)C(=O)N(C)C)cc3)c3nccn23)C1` [Example 86, N-[4-(7-(4-cyanophenyl)-5-{[(3R)-1-methylpiperidin-3-y1]methoxy}imidazo[1,2-c]pyrimidin-8-yl)benzyl]-N,N′,N′-trimethylurea] the IC50 was at most 50 nM.
Work on `CN1CCC[C@@H](COc2nc(-c3ccc(C#N)cc3)c(-c3cnc4c(c3)OCCN4C)c3nccn23)C1` [Example 14, 4-(8-(4-methyl-3,4-dihydro-2H-pyrido[3,2-b][1,4]oxazin-7-yl)-5-{[(3R)-1-methylpiperidin-3-yl]methoxy}imidazo[1,2-c]pyrimidin-7-yl)benzonitrile] yielded an IC50 of at most 50 nM.
